Test results as given in patent US20210308120A1, “Use of Amitriptyline for Blocking Brain Hemichannels and Method for Potentiating its Effect in Vivo” (THERANEXUS, priority 2015, published 2021).

Tests used:
[1] = test system: REM sleep in mice; test: Quantification of sleep-wake episodes (REM sleep), EEG/EMG; format: in vivo, mouse; conditions: amitriptyline 1 mg/kg i.p., combined or not with mefloquine 1 mg/kg i.p.; vs control
Source text: Mice were implanted with cortical and muscle electrodes to record the electroencephalogram (EEG) and electromyogram (EMG) and to monitor the sleep-wake cycle. This implantation allows stable and long-lasting polysomnographic recordings (Parmentier et al, 2002).
Polysomnographic records were visually scored by 10-s epochs for wakefulness (W), slow wave sleep (SWS), and paradoxical or rapid eye movement (REM) sleep.
Mice were registered by electroencephalogram to quantify sleep-wake episodes.

[2] = test system: LPS-injected mice (neuro-inflammation); test: LPS-induced model of neuro-inflammation (coat state score, weight loss); format: in vivo, mouse; conditions: amitriptyline 1 mg/kg ± mefloquine 1 mg/kg
Source text: FIG. 13 represents the coat state scores evaluated three hours after treatment in a LPS-induced model of neuro-inflammation (left graph). The right graph represents the amount of weight loss between three hours of treatment and just before treatment in a LPS-induced model of neuro-inflammation (right graph). Control mice were ip injected with saline solution. […] In both graphs: n=4-6 mice per group, data are presented as means±SEM and compared with a One-way ANOVA followed by Tukey's post-hoc test, *p<0.05, […] versus CONTROL-treated mice.
Adult Swiss male mice were used in the LPS model. Mice were kept in collective cages for habituation to the facility for one week before experimental testing. Afterwards, they were housed in individual cages two days before the experiment started with food and water ad libitum. Mice were maintained on a light/dark cycle of 12 hours with light onset at 8h00 and with a controlled temperature of 21° C.±1° C. […]
Coat state score was evaluated three hours after treatment. […] The cleanness fur state was evaluated for each of these five body parts. […]
General physiological state of the animals was assessed by the normalised weight loss; defined as the difference between weight measures three hours after treatment (T0+24 h) and just before treatment (T0+21 h).

[3] = test system: SN-CCI rats (neuropathic pain, hyperalgesia); test: Randall & Selitto test in SN-CCI rats, repeated administration every 150 minutes; format: in vivo, rat; conditions: amitriptyline alone i.p. every 150 min; at 90 and 240 min
Method: (§1) One week after their arrival, rats were anesthetized with sodium pentobarbital before exposing the common sciatic nerve. As described in Bennett's article, four chromic catgut (5-0) ligations were tied loosely proximally to the sciatic trifurcation (Bennett and Xie, 1988).
(§2) All behavioral assessments were conducted between 9 a.m. and 5 p.m. in a quiet room. An increasing pressure was applied to the right hind paw of SN-CCI (Sciatic Nerve-Chronic Constriction Injury) rat to evaluate hyperalgesia-like behavior (Viguier and al, 2013). Values correspond to the pressure threshold producing the paw withdrawal and then the vocalization of the rat.

[4] = test system: SN-CCI rats (neuropathic pain, hyperalgesia); test: Randall & Selitto test in SN-CCI rats, chronic 14-day administration; format: in vivo, rat; conditions: amitriptyline 12 mg/kg s.c. osmotic pump; mefloquine 0.5 mg/kg i.p. twice a day; 14 days; vs saline
Source text: Data are the means±S.E.M. of n=8-14 rats.
Data are the means±S.E.M. of n=8-14 rats. *p<0.05, **p<0.01, ***p<0.001 as compared with “saline+saline” group at the same time, ≠p<0.05 as compared between amitriptyline groups, two-way ANOVA, Bonferroni test.
as §1, §2
(§3) Osmotic mini-pumps (Alzet, model 2ML2), delivering for the following 14 days amitriptyline or vehicle were subcutaneously implanted.
a) Rats were ligated on sciatic nerve and then tested with the Randall & Selitto test 14 days after surgery, to evaluate hyperalgesia quantified as pressure threshold. Neuropathic rats, characterized by a decrease of pressure threshold after surgery, were then treated during 14 days and tested by the Randall & Selitto test during this period.

[5] = rats; cited from earlier work
[6] = Pharmacokinetic of amitriptyline in brain and serum of SN-CCI rats; format: in vivo, rat; conditions: amitriptyline 12 mg/kg osmotic pump ± mefloquine 0.5 mg/kg i.p. bidaily, 14 days
Method: Blood was collected and kept 1 hour at 4° C. Then serum and brain were collected. Amitriptyline was quantified by HPLC and mass spectrometry (Crepta laboratory).
as §3
After 14-day treatment, so 28 days after surgery, rats were sacrificed and brain as well as serum samples were collected to quantify amitriptyline.

Amitriptyline concentration in brain, with vs without mefloquine [6]: No changes
Amitriptyline concentration in serum, with vs without mefloquine [6]: No changes
Amitriptyline ratio brain/plasma, with vs without mefloquine [6]: no significant difference
Compound: CN(C)CCC=C1c2ccccc2CCc2ccccc21 [amitriptyline, 3-(5,6-dihydrodibenzo[2,1-b:2′,1′-f][7]annulen-11-ylidene)-N,N-dimethylpropan-1-amine]
REM sleep duration [1]: did not induce significant reduction on its own
Weight loss ([2]; between just before and three hours after oral treatment): induces a decrease in weight loss
Coat state score (grooming activity) ([2]; three hours after oral treatment, LPS 0.33 mg/kg i.p.): tendency to reduce the deterioration of coat state
Paw withdrawal threshold [3]: did not induce significant effect on its own
Paw withdrawal threshold (pressure) [4]: significant increase of the paw withdrawal threshold at day 14
Vocalization threshold (pressure) [4]: increase of the vocalization threshold
Half-life [5]: 2.5 h
